Drawing on patent publication US10022359B2, “1,9-diazaspiro undecane compounds having multimodal activity against pain” (LABORATORIOS DEL DR. ESTEVE S.A., priority 2014, dated 2018), this text covers Ki for 13 compounds.

Molecules are shown by their SMILES.

The Ki is a dissociation constant, usually derived from enzyme kinetics or from competition with a known ligand.

The target of the assay is human σ1 receptor and human μ-opioid receptor. Description: Human σ1 receptor and human μ-opioid receptor radioligand assays (dual binding). To be noted: combined class for Ki-μ ([3H]-DAMGO, transfected CHO-K1 membranes) and Ki-σ1 ([3H](+)-pentazocine, transfected HEK-293 membranes).
For the compound `O=C(c1ccccn1)N1CCOCC12CCN(CCc1ccccc1)CC2` [Example 11, (9-phenethyl-4-oxa-1,9-diazaspiro[5.5]undecan-1-yl)(pyridin-2-yl)methanone], the Ki is at least 500 nM.
Consider `O=C(c1ccncc1)N1CCOCC12CCN(CCc1ccccc1)CC2` [Example 13, (9-phenethyl-4-oxa-1,9-diazaspiro[5.5]undecan-1-yl)(pyridin-4-yl)methanone], for which the Ki was at least 500 nM.
For `O=C(c1cccnc1)N1CCOCC12CCN(CCc1ccccc1)CC2` [Example 14, (9-phenethyl-4-oxa-1,9-diazaspiro[5.5]undecan-1-yl)(pyridin-3-yl)methanone], the Ki is at least 500 nM.
As for `O=C(c1cscn1)N1CCOCC12CCN(CCc1ccccc1)CC2` [Example 16, (9-phenethyl-4-oxa-1,9-diazaspiro[5.5]undecan-1-yl)(thiazol-4-yl)methanone], the Ki was at least 500 nM.
The figure for `O=C(Cc1ccccn1)N1CCOCC12CCN(CCc1ccccc1)CC2` [Example 17, 1-(9-phenethyl-4-oxa-1,9-diazaspiro[5.5]undecan-1-yl)-2-(pyridin-2-yl)ethanone] is at least 500 nM.
Consider `O=C(Cc1ccncc1)N1CCOCC12CCN(CCc1ccccc1)CC2` [Example 19, 1-(9-phenethyl-4-oxa-1,9-diazaspiro[5.5]undecan-1-yl)-2-(pyridin-4-yl)ethanone], for which the Ki was at least 500 nM.
For the compound `O=C(c1cncs1)N1CCOCC12CCN(CCc1ccccc1)CC2` [Example 20, (9-phenethyl-4-oxa-1,9-diazaspiro[5.5]undecan-1-yl)(thiazol-5-yl)methanone], the Ki is at least 500 nM.
The figure for `O=C(Cc1cccnc1)N1CCOCC12CCN(CCc1ccccc1)CC2` [Example 22, 1-(9-phenethyl-4-oxa-1,9-diazaspiro[5.5]undecan-1-yl)-2-(pyridin-3-yl)ethanone] is at least 500 nM; for `Fc1cnccc1CN1CCOCC12CCN(CCc1ccccc1)CC2` [Example 31, 1-((3-fluoropyridin-4-yl)methyl)-9-phenethyl-4-oxa-1,9-diazaspiro[5.5]undecane] it is at least 500 nM.
The figure for `O=[N+]([O-])c1cccc(CCN2CCC3(CC2)COCCN3c2ccccc2)c1` [Example 41, 9-(3-nitrophenethyl)-1-phenyl-4-oxa-1,9-diazaspiro[5.5]undecane] is at least 500 nM.
The figure for `O=C(CN1CCC2(CC1)COCCN2C(=O)c1ccccc1)c1ccccc1` [Example 45, 2-(1-benzoyl-4-oxa-1,9-diazaspiro[5.5]undecan-9-yl)-1-phenylethanone] is at least 500 nM.
Consider `Nc1cccc(CCN2CCC3(CC2)COCCN3c2ccccc2)c1` [Example 50, 3-(2-(1-phenyl-4-oxa-1,9-diazaspiro[5.5]undecan-9-yl)ethyl)aniline], for which the Ki was at least 500 nM.
The figure for `O=C(c1ccccc1)N1CCOCC12CCN(CC(O)c1ccccc1)CC2` (stereo not shown) [Example 51, (9-(2-hydroxy-2-phenylethyl)-4-oxa-1,9-diazaspiro[5.5]undecan-1-yl)(phenyl)methanone] is at least 500 nM.
